Reference: patent publication US5849259A, “3-,8-substituted deuteroporphyrin derivatives, pharmaceutical agents containing the latter and process for their production” (priority 1992, dated 1998)

Tests used:
Type in all cases: in vivo, nude mice (Balb/c nu/nu)
[1] = tested on: HT29 and WiDr colon cancer; assay: Signal intensity change in tissues of tumor-bearing (HT29 and WiDr colon cancer) nude mice, example 2c, 0.05 mmol/kg; settings: 0.05 mmol/kg i.v.; for enhancement, HT29 / enhancement, Kidneys / enhancement, Liver / enhancement, Muscle / enhancement, WiDr: time 0 = 100
Experimental: On a Bruker Biospec nuclear spin tomograph (2.35 Tesla), the signal intensity change in various tissues of tumor-bearing (HT29 and WiDr colon cancer) nude mice (Balb/c nu/nu) was studied after i.v. administration of 0.05 mmol/kg of the compound according to example 2c (10 mmol/l, pH 7.2; 37° C. in bidistilled water). The measurement takes place with a multi slice single echo sequence (MSSE). Imaging parameters: TR: 400 ms, TE: 30 ms, layer thickness: 4 mm, number of averages: 4/slice, matrix 256^2. After a preliminary image, 0.05 mmol/kg of the substance was administered and the signal intensity change (relative to an internal standard) was studied 5, 30, 60, 120 and 180 minutes

[2] = tested on: HT29 and WiDr colon cancers; assay: Enhancement (signal intensity change, NMR imaging) in tissues with HT29/WiDr tumors, Example 22 Table 2
[3] = Tissue concentrations by ICP-AES after 0.1 mmol/kg i.v. in nude mice with subcutaneously implanted colon cancers (HT29, WiDr); settings: 2 hours p.i. (so in the source)
[4] = as above
Experimental: (§1) a) 9 nude mice (Balb/c nu/nu) with subcutaneously implanted colon cancers (HT29, WiDr) were each administered by i.v. 0.1 mmol/kg of the mesoporphyrin derivative of example 1b (10 mmol/l dissolved in bidistilled water, pH 7.2, 37° C.). After 0.5, 3 and 24 hours the animals were killed and dissected. The tissue concentrations were determined after corresponding working-up (HNO3 conc.) by ICP-AES and calculated for % of the administered dose per gram of tissue net weight.
e) 9 nude mice (Balb/c nu/nu) with subcutaneously implanted colon cancers (HT29 and WiDr) were each administered by i.v. 0.1 mmol/kg of the deuteroporphyrin derivative of the compound according to example 1c (10 mmol/l dissolved in bidistilled water, pH 7.2, 37° C.). After 0.5, 3 and 24 hours, the animals were killed and dissected. The tissue concentrations were determined after corresponding working-up (HNO3 conc.) by ICP-AES and calculated for % of the administered dose per gram of tissue net weight. Moreover, tissue relaxation times T1 and T2 were determined (Bruker minispec pc 120).
as §1, with “9” for “a) 9”, “8e” for “1b”, “hours,” for “hours”
as §1, with “9” for “a) 9”, “0.1.” for “0.1”, “16f” for “1b”, “0.5 and” for “0.5,”, “3” for “3 and 24”
as §1, with “9” for “a) 9”, “18d” for “1b”, “0.5 and” for “0.5,”, “hours,” for “and 24 hours”
as §1, with “9” for “a) 9”, “19e” for “1b”, “hours,” for “hours”

Question: Which results are given for “N,N'-Bis[13-carboxylato-4-oxo-6,8,12-tris-(carboxylatomethyl)-3,6,9,12-tetraazatridecyl]-mesoporphyrin--IX-3,17-diamide, digadolinium complex, disodium salt [Example 2c]”?
Answer: time of greatest signal intensity difference [1]: 2 hours p.i. or 3 hours p.i.; enhancement, HT29 ([1]; 5 min): 171 ± 14; enhancement, Kidneys ([1]; 5 min): 169 ± 45; enhancement, Liver ([1]; 5 min): 173 ± 31; enhancement, Muscle ([1]; 5 min): 143 ± 23; enhancement, WiDr ([1]; 5 min): 165 ± 39; signal intensity change, liver tissue and both tumors ([1]; 5 minutes p.i.): marked signal intensity increase; enhancement, HT29 ([1]; 30 min): 169 ± 14; enhancement, Kidneys ([1]; 30 min): 211 ± 33; enhancement, Liver ([1]; 30 min): 157 ± 30; enhancement, Muscle ([1]; 30 min): 157 ± 29; enhancement, WiDr ([1]; 30 min): 170 ± 32; enhancement, HT29 ([1]; 60 min): 168 ± 12; enhancement, Kidneys ([1]; 60 min): 207 ± 31; enhancement, Liver ([1]; 60 min): 170 ± 16; enhancement, Muscle ([1]; 60 min): 120 ± 8; enhancement, WiDr ([1]; 60 min): 153 ± 33; enhancement, HT29 ([1]; 120 min): 178 ± 32; enhancement, Kidneys ([1]; 120 min): 191 ± 37; enhancement, Liver ([1]; 120 min): 179 ± 37; enhancement, Muscle ([1]; 120 min): 126 ± 10; enhancement, WiDr ([1]; 120 min): 153 ± 0; enhancement, HT29 ([1]; 180 min): 136 ± 23; enhancement, Kidneys ([1]; 180 min): 136 ± 25; enhancement, Liver ([1]; 180 min): 167 ± 7; enhancement, Muscle ([1]; 180 min): 112 ± 9; enhancement, WiDr ([1]; 180 min): 117 ± 33; signal intensity change, muscle ([1]; reference tissue): only a small change; signal intensity change, kidneys ([1]; up to 2 hours p.i.): even stronger signal intensity change

Question: For “N,N'-Bis[9-carboxylato-2,5-bis(carboxylatomethyl)-8-(ethoxycarboxymethyl-2,5,8-triazanonyl-carbamoyl]-mesoporphyrin-IX-13,17-diamide, digadolinium complex [Example 1b]”, which “enhancement, HT29” value ([2]; 5 min) is on record?
Answer: 1.36

Question: And the “enhancement, Kidneys” value ([2]; 5 min)?
Answer: 2.89

Question: And the “enhancement, Liver” value ([2]; 5 min)?
Answer: 1.43

Question: What about the “enhancement, Muscle” value ([2]; 5 min) of the same substance?
Answer: 1.41

Question: And the “enhancement, WiDr” value ([2]; 5 min)?
Answer: 1.16

Question: What about the “signal intensity change, liver tissue” value ([2]; 5 minutes p.i.) of the same substance?
Answer: marked signal intensity increase

Question: And the “enhancement, HT29” value ([2]; 15 min)?
Answer: 1.49

Question: What about the “enhancement, Kidneys” value ([2]; 15 min) of the same substance?
Answer: 2.70

Question: And the “enhancement, Liver” value ([2]; 15 min)?
Answer: 1.43

Question: What about the “enhancement, Muscle” value ([2]; 15 min) of the same substance?
Answer: 1.41

Question: And the “enhancement, WiDr” value ([2]; 15 min)?
Answer: 1.16

Question: And the “enhancement, HT29” value ([2]; 30 min)?
Answer: 1.54

Question: What about the “enhancement, Kidneys” value ([2]; 30 min) of the same substance?
Answer: 2.65

Question: What about the “enhancement, Liver” value ([2]; 30 min) of the same substance?
Answer: 1.40

Question: And the “enhancement, Muscle” value ([2]; 30 min)?
Answer: 1.39

Question: What about the “enhancement, WiDr” value ([2]; 30 min) of the same substance?
Answer: 1.18

Question: What about the “enhancement, HT29” value ([2]; 45 min) of the same substance?
Answer: 1.55

Question: What about the “enhancement, Kidneys” value ([2]; 45 min) of the same substance?
Answer: 2.79

Question: And the “enhancement, Liver” value ([2]; 45 min)?
Answer: 1.42

Question: And the “enhancement, Muscle” value ([2]; 45 min)?
Answer: 1.40

Question: And the “enhancement, WiDr” value ([2]; 45 min)?
Answer: 1.25

Question: What about the “enhancement, HT29” value ([2]; 60 min) of the same substance?
Answer: 1.59

Question: And the “enhancement, Kidneys” value ([2]; 60 min)?
Answer: 2.56

Question: And the “enhancement, Liver” value ([2]; 60 min)?
Answer: 1.38

Question: What about the “enhancement, Muscle” value ([2]; 60 min) of the same substance?
Answer: 1.29

Question: What about the “enhancement, WiDr” value ([2]; 60 min) of the same substance?
Answer: 1.05

Question: And the “enhancement, HT29” value ([2]; 75 min)?
Answer: 1.97

Question: What about the “enhancement, Kidneys” value ([2]; 75 min) of the same substance?
Answer: 2.53

Question: And the “enhancement, Liver” value ([2]; 75 min)?
Answer: 1.51

Question: What about the “enhancement, Muscle” value ([2]; 75 min) of the same substance?
Answer: 1.47

Question: What about the “enhancement, WiDr” value ([2]; 75 min) of the same substance?
Answer: 1.23

Question: And the “maximum enhancement, liver” value ([2]; 75 minutes p.i.)?
Answer: +50%

Question: And the “maximum enhancement, tumor” value ([2]; 75 minutes p.i.)?
Answer: +100%

Question: What about the “enhancement, HT29” value ([2]; 90 min) of the same substance?
Answer: 1.51

Question: And the “enhancement, Kidneys” value ([2]; 90 min)?
Answer: 2.40

Question: What about the “enhancement, Liver” value ([2]; 90 min) of the same substance?
Answer: 1.43

Question: What about the “enhancement, Muscle” value ([2]; 90 min) of the same substance?
Answer: 1.50

Question: What about the “enhancement, WiDr” value ([2]; 90 min) of the same substance?
Answer: 1.28

Question: And the “enhancement, HT29” value ([2]; 120 min)?
Answer: 1.64

Question: What about the “enhancement, Kidneys” value ([2]; 120 min) of the same substance?
Answer: 2.15

Question: What about the “enhancement, Liver” value ([2]; 120 min) of the same substance?
Answer: 1.47

Question: And the “enhancement, Muscle” value ([2]; 120 min)?
Answer: 1.34

Question: And the “enhancement, WiDr” value ([2]; 120 min)?
Answer: 1.22

Question: What about the “enhancement, HT29” value ([2]; 24 hours) of the same substance?
Answer: 1.05

Question: And the “enhancement, Kidneys” value ([2]; 24 hours)?
Answer: 1.51

Question: What about the “enhancement, Liver” value ([2]; 24 hours) of the same substance?
Answer: 1.19

Question: And the “enhancement, Muscle” value ([2]; 24 hours)?
Answer: 1.24

Question: What about the “enhancement, WiDr” value ([2]; 24 hours) of the same substance?
Answer: 1.64

Question: What about the “signal intensity change, tumor” value ([2]; after 30 minutes) of the same substance?
Answer: marked signal intensity increase

Question: What about the “signal intensity change, kidneys” value ([2]; mouse, in vivo) of the same substance?
Answer: stronger signal intensity change

Question: And the “signal intensity change, muscle” value ([2]; reference tissue)?
Answer: only a small change

Question: For “Zinc(II)-{N,N'-bis[11-carboxylato-2-oxo-4,7,10-tris-(carboxylatomethyl)-1,4,7,10-tetraazaundecyl]-3,8-bis-(2-(naphth-1-yl)-ethyl)-deuteroporphyrin-IX-13,17-diamide}, digadolinium complex, disodium salt [Example 18d]”, which “tissue concentration, liver” value [3] is on record?
Answer: ~17 % of the administered dose per

Question: And the “tissue concentration, HT29 tumor” value ([4]; 0.5 hour p.i.)?
Answer: 1.48 ± 0.28 % of the administered dose per gram of tissue net weight

Question: What about the “tissue concentration, WiDr tumor” value ([4]; 0.5 hour p.i.) of the same substance?
Answer: 1.94 ± 0.78 % of the administered dose per gram of tissue net weight

Question: And the “tissue concentration, blood” value ([4]; 0.5 hour p.i.)?
Answer: 24.44 ± 2.32 % of the administered dose per gram of tissue net weight

Question: What about the “tissue concentration, intestine” value ([4]; 0.5 hour p.i.) of the same substance?
Answer: 4.93 ± 0.90 % of the administered dose per gram of tissue net weight

Question: And the “tissue concentration, kidneys” value ([4]; 0.5 hour p.i.)?
Answer: 11.74 ± 2.38 % of the administered dose per gram of tissue net weight

Question: What about the “tissue concentration, lung” value ([4]; 0.5 hour p.i.) of the same substance?
Answer: 17.70 ± 2.50 % of the administered dose per gram of tissue net weight

Question: And the “tissue concentration, muscle” value ([4]; 0.5 hour p.i.)?
Answer: 0.89 ± 0.17 % of the administered dose per gram of tissue net weight

Question: What about the “tissue concentration, rest of body” value ([4]; 0.5 hour p.i.) of the same substance?
Answer: 2.38 ± 0.27 % of the administered dose per gram of tissue net weight

Question: What about the “tissue concentration, skin” value ([4]; 0.5 hour p.i.) of the same substance?
Answer: 3.71 ± 0.52 % of the administered dose per gram of tissue net weight

Question: What about the “tissue concentration, spleen” value ([4]; 0.5 hour p.i.) of the same substance?
Answer: 7.52 ± 0.40 % of the administered dose per gram of tissue net weight

Question: And the “tissue concentration, HT29 tumor” value ([4]; 3 hours p.i.)?
Answer: 3.53 ± 0.52 % of the administered dose per gram of tissue net weight

Question: What about the “tissue concentration, WiDr tumor” value ([4]; 3 hours p.i.) of the same substance?
Answer: 4.50 ± 0.98 % of the administered dose per gram of tissue net weight

Question: What about the “tissue concentration, blood” value ([4]; 3 hours p.i.) of the same substance?
Answer: 16.95 ± 1.53 % of the administered dose per gram of tissue net weight

Question: And the “tissue concentration, intestine” value ([4]; 3 hours p.i.)?
Answer: 2.31 ± 0.28 % of the administered dose per gram of tissue net weight

Question: What about the “tissue concentration, kidneys” value ([4]; 3 hours p.i.) of the same substance?
Answer: 20.41 ± 1.88 % of the administered dose per gram of tissue net weight

Question: What about the “tissue concentration, liver” value ([4]; 3 hours p.i.) of the same substance?
Answer: 16.89 ± 1.15 % of the administered dose per gram of tissue net weight

Question: And the “tissue concentration, lung” value ([4]; 3 hours p.i.)?
Answer: 17.56 ± 3.34 % of the administered dose per gram of tissue net weight

Question: What about the “tissue concentration, muscle” value ([4]; 3 hours p.i.) of the same substance?
Answer: 1.04 ± 0.06 % of the administered dose per gram of tissue net weight

Question: What about the “tissue concentration, rest of body” value ([4]; 3 hours p.i.) of the same substance?
Answer: 2.43 ± 0.13 % of the administered dose per gram of tissue net weight

Question: What about the “tissue concentration, skin” value ([4]; 3 hours p.i.) of the same substance?
Answer: 4.46 ± 0.53 % of the administered dose per gram of tissue net weight

Question: And the “tissue concentration, spleen” value ([4]; 3 hours p.i.)?
Answer: 10.82 ± 0.87 % of the administered dose per gram of tissue net weight

Question: For “13,17-Bis-(15-carboxylato-6-oxo-8,11,14-tris-(carboxylatomethyl)-5,8,11,14-tetraazapentadecyl]-3,8-diethyl-2,7,12,18-tetramethylporphyrin, digadolinium complex, disodium salt [Example 19e]”, which “decrease of tissue concentration except liver, relative to 0.5 hour p.i.” value ([4]; within 24 hours) is on record?
Answer: 5-20 factor
